Test results from patent US20250082656A1, “DOSAGE REGIMENS FOR TREATMENT OF DENGUE INFECTION” (Atea Pharmaceuticals, Inc., priority 2022, published 2025).

Tests used:
Japanese encephalitis = assay: Neutral red assay of virus-induced CPE, JEV; type: cell-based; details: SA-14, Huh-7, neutral red assay
Dengue serotype 2 = assay: In vitro antiviral potency, summary over strains, Dengue serotype 2; type: cell-based; details: Dengue virus
Dengue-2 (DENV-2) = assay: Neutral red assay of virus-induced CPE, DENV-2; type: cell-based; details: DENV2, DENV-2 New Guinea C (NGC), Huh-7, neutral red (NR) assay
West Nile (WNV) = assay: microbe, parasite or virus in culture; type: cell-based; details: Kern 515, WNo2, Huh-7, VYR assay
DENV-1 = assay: Antiviral assay with FC read-out, DENV-1; type: cell-based; details: Dengue virus, DENV1; DENV-1 WP74, Huh-7, FC read-out
Influenza A and B = assay: Antiviral specificity panel, Influenza A and B; type: cell-based; details: Influenza A virus; RNA virus, MDCK
Adenovirus = assay: Antiviral specificity panel, Adenovirus; type: cell-based; details: unidentified adenovirus; DNA virus, Vero
Herpes simplex-1 = assay: Antiviral specificity panel, Herpes simplex-1; type: cell-based; details: DNA virus, Vero
[1] = Cardiomyocyte cytotoxicity assay (CellTiter Glo); details: human, human iPS cardiomyocytes
[2] = Cytotoxicity in Vero cells; type: cell-based; details: African green monkey, Table 2, Vero, parallel to the virus of the line
Experimental: (§1) To assess the antiviral specificity of Compound 1 (AT-281), serial dilutions were incubated with various host cell lines infected with a panel of DNA and RNA viruses other than flaviviruses. The activity of Compound 1 (AT-281) was measured in infected cells using the neutral red assay to determine the effective concentration required to inhibit viral replication 50% (EC50) (described in Example 3) and the threshold concentration required to obtain a perceptible effect on 50% of the cells incubated without virus (CC50). Compound 1 (AT-281) had no activity against the DNA viruses tested and was only weakly or not active against several RNA viruses (Table 2).

Usutu = assay: microbe, parasite or virus in culture; type: cell-based; details: TC-508, Huh-7, VYR assay
DENV-3 = assay: Antiviral assay with FC read-out, DENV-3; type: cell-based; details: Dengue virus, DENV3; DENV-3 CH4348, Huh-7, FC read-out
DENV-2 = assay: CPE (MTT) assay, DENV-2 in human PBMCs and BHK-21 cells; type: cell-based, Dengue virus
[3] = Cytotoxicity in H1-HeLa cells; type: cell-based; details: human, Table 2, H1-HeLa
Experimental: as §1

DENV4 NS5 = DENV4 NS5 (Dengue virus type 4, UniProt P09866); assay: Thermal shift assay, DENV4 NS5; details: read-out: ΔTM
DENV3 MTase domain = DENV3 MTase domain (Dengue virus type 3, UniProt Q6YMS4); assay: Thermal shift assay, DENV3 MTase domain; details: read-out: ΔTM
[4] = In vivo formation of AT-9010 in PBMCs, mice
DENV3 NS5 [5] = target: T1, DENV3 NS5 (Dengue virus type 3, UniProt Q6YMS4); assay: Thermal shift assay, DENV3 NS5; details: read-out: ΔTM
DENV3 NS5 [6] = target: T1, DENV3 NS5; assay: Nucleotide analogue incorporation / discrimination assay, DENV3 NS5; type: biochemical; details: GTP for AT-9010 and AT-9002, UTP for SOF-TP
Experimental: (§2) The chain-terminating efficiency of Compound 5 was measured in competitive nucleotide incorporation assays using all four DENV serotypes. […] In comparison, sofosbuvir triphosphate is incorporated into the RNA less than 1 time for every 100 UTP (native uridine triphosphate) incorporations.
(§3) Measurements and quantitations were as in FIG. 19B.
(§4) DENV NS5 was pre-incubated with the annealed P10/T20 RNA in an assembly buffer containing 20 mM HEPES pH 7.5, 10% glycerol, 5 mM MgCl2, and 5 mM DTT for 10 min at 30° C. to create an active RNA elongation complex.
(§5) Reactions were started by adding AT-9010 with either all four NTPs or UTP, ATP, and CTP only.
(§6) Single nucleotide incorporation was tested as follows. Reactions were started by adding the corresponding NTP or analogue. Final concentrations were 1 μM NS5, 0.25 μM P10/T20, 100 μM NTP or analogue in a final buffer containing 20 mM HEPES pH 7.5, 15% glycerol, 5 mM MgCl2, and 5 mM DTT.
(§7) Reactions were quenched at the designated time points in 3× volume FBD stop solution (formamide, 10 mM EDTA) and analyzed on 20% acrylamide-bisacrylamide (19:1) […] sequencing gels. RNA products were visualized using a Typhoon FluorImager then analyzed and quantified using ImageQuant software.

DENV1 RdRp domain = assay: Thermal shift assay, DENV1 RdRp domain; details: RdRp domain DENV1, 100 μM compound
DENV2 NS5 = DENV2 NS5 (Dengue virus type 2, UniProt P14340); assay: Thermal shift assay, DENV2 NS5; details: read-out: ΔTM
[7] = 10 μM Compound 1 for 6 h, peak at 10 h after initiation of exposure
DENV1 NS5 = DENV1 NS5 (Dengue virus type 1, UniProt P17763); assay: Nucleotide analogue incorporation / discrimination assay, DENV1 NS5; type: biochemical; details: GTP for AT-9010 and AT-9002, UTP for SOF-TP
Experimental: as §2, §3, §4, §5, §6, §7

DENV2 MTase domain = DENV2 MTase domain (Dengue virus type 2, UniProt P14340); assay: Thermal shift assay, DENV2 MTase domain; details: read-out: ΔTM
[8] = tested on: NS5 RNA dependent RNA polymerase (RdRp); assay: Competitive nucleotide incorporation assays, all four DENV serotypes (summary); type: biochemical, Dengue virus; details: approximately
Experimental: As described in Example 10 and shown in FIG. 1, the active metabolite of Compound 2 or Compound 1 (Compound 5) acts as a GTP analog and is incorporated into RNA by the NS5 RNA dependent RNA polymerase (RdRp), immediately terminating synthesis.
as §2

T1 sequence (Q6YMS4 2491-3390): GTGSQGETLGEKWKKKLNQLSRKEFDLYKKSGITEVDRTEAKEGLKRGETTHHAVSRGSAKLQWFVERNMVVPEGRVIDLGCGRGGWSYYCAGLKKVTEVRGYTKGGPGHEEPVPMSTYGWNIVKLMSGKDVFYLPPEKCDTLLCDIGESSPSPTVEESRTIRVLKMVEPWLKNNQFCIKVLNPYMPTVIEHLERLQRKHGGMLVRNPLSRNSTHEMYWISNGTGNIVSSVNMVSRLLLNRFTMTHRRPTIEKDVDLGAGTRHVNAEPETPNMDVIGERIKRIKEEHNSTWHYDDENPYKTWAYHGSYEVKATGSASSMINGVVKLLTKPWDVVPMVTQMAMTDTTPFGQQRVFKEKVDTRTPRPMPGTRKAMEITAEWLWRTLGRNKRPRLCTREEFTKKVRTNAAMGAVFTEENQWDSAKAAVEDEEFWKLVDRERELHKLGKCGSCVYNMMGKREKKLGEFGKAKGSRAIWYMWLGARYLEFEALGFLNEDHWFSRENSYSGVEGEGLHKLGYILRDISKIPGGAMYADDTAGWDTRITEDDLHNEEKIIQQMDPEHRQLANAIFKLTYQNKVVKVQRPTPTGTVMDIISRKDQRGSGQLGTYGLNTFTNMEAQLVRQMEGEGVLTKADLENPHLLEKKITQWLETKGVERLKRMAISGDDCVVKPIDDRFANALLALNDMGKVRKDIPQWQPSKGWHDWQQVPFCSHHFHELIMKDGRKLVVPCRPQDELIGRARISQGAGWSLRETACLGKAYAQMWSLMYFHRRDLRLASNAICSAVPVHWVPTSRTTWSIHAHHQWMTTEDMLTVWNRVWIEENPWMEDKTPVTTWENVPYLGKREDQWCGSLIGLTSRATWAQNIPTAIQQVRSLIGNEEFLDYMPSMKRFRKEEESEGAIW
Chain of DENV1 NS5 (P17763 2494-3392): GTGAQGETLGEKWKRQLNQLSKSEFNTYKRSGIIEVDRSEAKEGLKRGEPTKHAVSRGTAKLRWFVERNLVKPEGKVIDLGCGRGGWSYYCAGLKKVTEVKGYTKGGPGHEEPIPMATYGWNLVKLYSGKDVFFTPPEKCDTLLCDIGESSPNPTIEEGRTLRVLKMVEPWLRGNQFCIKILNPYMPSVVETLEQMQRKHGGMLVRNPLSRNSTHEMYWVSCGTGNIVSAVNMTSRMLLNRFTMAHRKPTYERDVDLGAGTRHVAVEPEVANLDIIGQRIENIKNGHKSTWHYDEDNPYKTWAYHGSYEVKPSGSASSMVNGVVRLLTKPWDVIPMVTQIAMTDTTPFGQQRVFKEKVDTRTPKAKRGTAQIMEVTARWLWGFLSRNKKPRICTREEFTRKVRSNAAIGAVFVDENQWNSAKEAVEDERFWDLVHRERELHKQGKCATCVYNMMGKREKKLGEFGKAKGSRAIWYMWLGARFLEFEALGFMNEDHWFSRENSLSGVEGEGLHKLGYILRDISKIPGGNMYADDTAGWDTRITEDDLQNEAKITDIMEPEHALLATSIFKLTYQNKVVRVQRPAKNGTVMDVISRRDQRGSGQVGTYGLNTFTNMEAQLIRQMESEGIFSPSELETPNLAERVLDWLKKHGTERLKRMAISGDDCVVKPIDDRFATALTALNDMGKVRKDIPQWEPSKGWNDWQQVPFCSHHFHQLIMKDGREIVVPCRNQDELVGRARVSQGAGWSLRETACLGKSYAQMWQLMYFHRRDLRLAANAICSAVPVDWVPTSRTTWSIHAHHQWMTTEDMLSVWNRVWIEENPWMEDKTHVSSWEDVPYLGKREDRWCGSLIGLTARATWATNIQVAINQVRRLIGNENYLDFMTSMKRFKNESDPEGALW
Chain of DENV4 NS5 (P09866 2488-3387): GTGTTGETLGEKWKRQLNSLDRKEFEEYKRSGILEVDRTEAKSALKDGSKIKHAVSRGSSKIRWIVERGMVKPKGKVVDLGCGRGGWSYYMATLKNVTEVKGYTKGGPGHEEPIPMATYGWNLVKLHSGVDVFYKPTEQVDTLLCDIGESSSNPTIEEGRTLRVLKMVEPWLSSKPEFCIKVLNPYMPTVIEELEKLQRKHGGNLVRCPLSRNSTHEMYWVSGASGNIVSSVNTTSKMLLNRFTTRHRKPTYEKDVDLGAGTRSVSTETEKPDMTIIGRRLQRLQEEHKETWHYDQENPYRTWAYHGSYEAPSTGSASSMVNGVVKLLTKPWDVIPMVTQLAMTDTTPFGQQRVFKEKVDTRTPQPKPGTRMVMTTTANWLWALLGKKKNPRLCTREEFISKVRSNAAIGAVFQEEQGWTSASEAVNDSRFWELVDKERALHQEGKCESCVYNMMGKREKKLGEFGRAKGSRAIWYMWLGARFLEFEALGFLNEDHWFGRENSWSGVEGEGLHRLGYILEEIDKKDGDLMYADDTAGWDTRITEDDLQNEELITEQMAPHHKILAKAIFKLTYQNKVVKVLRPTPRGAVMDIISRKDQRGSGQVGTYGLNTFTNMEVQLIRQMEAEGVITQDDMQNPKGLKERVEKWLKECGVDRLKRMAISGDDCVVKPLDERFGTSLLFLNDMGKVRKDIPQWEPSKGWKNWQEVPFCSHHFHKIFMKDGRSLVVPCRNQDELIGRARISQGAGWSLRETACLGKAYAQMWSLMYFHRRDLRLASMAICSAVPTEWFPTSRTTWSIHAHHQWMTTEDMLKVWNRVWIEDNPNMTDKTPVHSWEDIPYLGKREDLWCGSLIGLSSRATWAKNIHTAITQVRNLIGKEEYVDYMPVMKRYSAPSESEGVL
Chain of DENV3 MTase domain (Q6YMS4 2492-2753): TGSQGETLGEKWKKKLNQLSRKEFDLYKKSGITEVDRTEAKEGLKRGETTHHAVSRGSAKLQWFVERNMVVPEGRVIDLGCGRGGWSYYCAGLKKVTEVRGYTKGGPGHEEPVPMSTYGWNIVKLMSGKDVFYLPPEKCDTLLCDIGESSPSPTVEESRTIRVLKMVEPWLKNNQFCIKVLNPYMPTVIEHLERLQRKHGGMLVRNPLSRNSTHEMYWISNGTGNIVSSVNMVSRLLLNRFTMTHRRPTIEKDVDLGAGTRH
Chain of DENV2 MTase domain (P14340 2493-2755 limits assumed): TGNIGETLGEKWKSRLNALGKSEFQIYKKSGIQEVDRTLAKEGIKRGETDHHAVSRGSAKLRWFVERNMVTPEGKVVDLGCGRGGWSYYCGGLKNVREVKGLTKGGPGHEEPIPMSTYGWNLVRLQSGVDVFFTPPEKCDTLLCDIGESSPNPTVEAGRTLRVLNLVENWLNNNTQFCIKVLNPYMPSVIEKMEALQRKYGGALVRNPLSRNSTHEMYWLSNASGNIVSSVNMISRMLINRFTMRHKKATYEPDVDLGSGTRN

CNc1nc(N)nc2c1ncn2[C@@H]1O[C@H](CO[P@](=O)(N[C@@H](C)C(=O)OC(C)C)Oc2ccccc2)[C@@H](O)[C@@]1(C)F [Compound 1, isopropyl ((R)-(((2R,3R,4R,5R)-5-(2-amino-6-(methylamino)-9H-purin-9-yl)-4-fluoro-3-hydroxy-4-methyltetrahydrofuran-2-yl)methoxy)(phenoxy)phosphoryl)-L-alaninate]
EC50 (Japanese encephalitis): 210 nM | EC50 (Dengue serotype 2): < 7000 nM | EC50 (Dengue-2 (DENV-2)): 480 nM | EC90 (West Nile (WNV)): 430 nM | EC50 (DENV-1): 150 nM | EC50 (Influenza A and B): > 100000 nM | EC50 (Adenovirus): > 100000 nM | EC50 (Herpes simplex-1): > 100000 nM | CC50 at 3 days [1]: > 100000 nM | CC50 [2]: > 100000 nM | EC90 (Usutu): 720 nM | EC50 (DENV-3): 1330 nM | EC50 (DENV-2; DENV-2 clinical isolate, BHK-21, CPE): 1050 nM | EC50 (DENV-2; Dengue virus, DENV2, BHK-21, DENV-2 NGC, BHK-21, CPE read-out): 3820 nM | CC50 [3]: > 100000 nM

C[C@@]1(F)[C@H](O)[C@@H](COP(=O)(O)OP(=O)(O)OP(=O)(O)O)O[C@H]1n1cnc2c(=O)[nH]c(N)nc21 [Compound 5]
ΔTm at 100 µM (DENV4 NS5): 4.8 ± 0.1 °C | ΔTm at 100 µM (DENV3 MTase domain): 3.5 ± 0.1 °C | concentration of AT-9010 in PBMCs ([4]; loading dose 500 mg/kg then 250 mg/kg 4 h later, 4 h after the second dose): 0.297 pmol/10^6 cells | concentration of AT-9010 in PBMCs ([4]; loading dose 500 mg/kg then 250 mg/kg 4 h later, 12 h after the second dose): 0.322 pmol/10^6 cells | concentration of AT-9010 in PBMCs ([4]; single oral dose 50 mg/kg, 12 h): 0.092 pmol/10^6 cells | ΔTm at 100 µM (DENV3 NS5 [5]): 5 ± 0.1 °C | Preference (discrimination) native nucleotide > analogue (DENV3 NS5 [6]): 11.6 ± 1.3 | ΔTM (DENV1 RdRp domain): 5.6±0.1 °C | ΔTm at 100 µM (DENV2 NS5): 6 ± 0.1 °C | mean peak concentration of AT-9010 in PBMCs [7]: 1.88±0.01 pmol/10^6 cells | Preference (discrimination) native nucleotide > analogue (DENV1 NS5): 7.7 ± 0.5 | ΔTm at 100 µM (DENV2 MTase domain): 4 ± 0.1 °C | GTPs incorporated for one AT-9010 incorporated [8]: 7-8
